Assay results published in patent US11629171B2, “Beta-hairpin peptidomimetics” (POLYPHOR AG, priority 2017, dated 2023).
In brackets after ≈: the same amount, converted by molar mass. Where a SMILES comes first, the peptide text is derived from it. Bridges are numbered along the chain shown (N, C = ends). Roman numbers before positions name the chains, in order. [ ]: non-standard residue; d: D form. The star is where a group is joined. Thr(ol) = C[C@@H](O)[C@H](N)CO; Tle = CC(C)(C)[C@H](N)C(=O)O; Hiv = CC(C)[C@H](O)C(=O)O; dDab = NCC[C@@H](N)C(=O)O; hSer = N[C@@H](CCO)C(=O)O; NHCH(CH2OH)2 = OCC(CO)N*; Orn = NCCC[C@H](N)C(=O)O; Dab = NCC[C@H](N)C(=O)O; Dap = NC[C@H](N)C(=O)O

Experiments:
Format in all cases: cell-based
[1] = system: human red blood cells (hRBC); assay: Hemolysis; details: red cells of human, 1 h, 200
In short: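 Read-out is supernatant absorbance at 540 nm, normalised to full lysis by 2% Triton X-100 and zero lysis by PBS with 10% water. Peptides (200 μg/mL) were exposed to 20% v/v washed human erythrocytes at 37° C for 1 h under shaking.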

[2] = system: Pseudomonas aeruginosa ATCC 27853; details: ATCC 27853
In short: (§1)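 CLSI broth microdilution in cation-adjusted Mueller-Hinton II broth with 0.002% polysorbate 80 (final), inoculum appr. 10^6 CFU/mL, peptides in serial two-fold dilutions. MIC (μg/mL) is the lowest concentration without visible growth after 18-20 h at 35° C.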

[3] = system: Acinetobacter baumannii DSM 30008; details: DSM 30008
In short: as §1

[4] = system: Escherichia coli 926415; details: 926415
In short: as §1

[5] = system: Escherichia coli ATCC 25922; details: ATCC 25922
In short: as §1

[6] = system: Acinetobacter baumannii 872842; details: 872842
In short: as §1

[7] = system: Klebsiella pneumoniae SSI #3010; details: SSI #3010
In short: as §1

[8] = system: Enterobacter cloacae 848840; details: 848840
In short: as §1

[9] = system: Klebsiella pneumoniae 968733; details: 968733
In short: as §1

| MIC [2] [µg/mL] | MIC [3] [µg/mL] | MIC [4] [µg/mL] | MIC [5] [µg/mL] | MIC [6] [µg/mL] | MIC [7] [µg/mL] | MIC [8] [µg/mL] | MIC [9] [µg/mL] | Structure (SMILES) | Hemolysis at 200 μg/mL [1] [%] |
| --- | --- | --- | --- | --- | --- | --- | --- | --- | --- |
| 0.25 (≈ 0.105 µM) | 0.125 (≈ 0.0524 µM) | 0.5 (≈ 0.209 µM) | 0.125 (≈ 0.0524 µM) | 0.25 (≈ 0.105 µM) | 0.25 (≈ 0.105 µM) | 4 (≈ 1.68 µM) | 0.5 (≈ 0.209 µM) | CC(C)C[C@@H]1NC(=O)[C@@H](CC(C)C)NC(=O)[C@H](CCN)NC(=O)[C@@H](NC(=O)[C@H](CN)NC(=O)[C@@H](NC(=O)[C@H](CCN)NC(=O)CC[C@H]2NC(=O)[C@H](CCCN)NC(=O)[C@H](CCN)NC(=O)[C@H](Cc3ccc(O)cc3)NC(=O)[C@@H](NC(=O)[C@@H](O)C(C)C)CSSC[C@@H](C(=O)NC(CO)CO)NC(=O)[C@H](C(C)(C)C)NC(=O)[C@H](CO)NC(=O)[C@H](Cc3c[nH]c4ccccc34)NC(=O)[C@H]([C@@H](C)O)NC2=O)[C@@H](C)O)CCNC(=O)[C@H]([C@@H](C)O)NC(=O)[C@H](CCN)NC(=O)[C@H](CCN)NC1=O [Ex. 163] (I: H-[Hiv]CY[Dab][Orn][dE]TWS[Tle]C-{NHCH(CH2OH)2} / II: [Dab]T[Dap][Dab][Dab][dL]L[Dab][Dab]T; disulfide I:2-I:11; amide I:6-II:N; lactam II:4-II:C) | 1 |
| 0.25 (≈ 0.108 µM) | 0.0625 (≈ 0.0269 µM) | 0.25 (≈ 0.108 µM) | 0.0625 (≈ 0.0269 µM) | 0.25 (≈ 0.108 µM) | 0.125 (≈ 0.0539 µM) | 0.125 (≈ 0.0539 µM) | 0.25 (≈ 0.108 µM) | CC(=O)N[C@H](C(=O)N[C@H]1CCCNC(=O)[C@@H]([C@H](C)O)NC(=O)[C@H](C(C)(C)C)NC(=O)[C@H](CO)NC(=O)[C@H](Cc2c[nH]c3ccccc23)NC(=O)[C@H](CCN)NC(=O)[C@@H](CCN)NC(=O)[C@H](CCC(=O)N[C@@H](CCN)C(=O)N[C@H](C(=O)N[C@@H](CN)C(=O)N[C@H]2CCNC(=O)[C@H]([C@@H](C)O)NC(=O)[C@H](CCN)NC(=O)[C@H](CCN)NC(=O)[C@H](CC(C)C)NC(=O)[C@@H](CC(C)C)NC(=O)[C@H](CCN)NC2=O)[C@@H](C)O)NC(=O)[C@H](CO)NC(=O)[C@H](Cc2ccc(O)cc2)NC1=O)C(C)C [Ex. 25] (I: Ac-V[Orn]YSE[dDab][Dab]WS[Tle][dT] / II: [Dab]T[Dap][Dab][Dab][dL]L[Dab][Dab]T; lactam I:2-I:C, II:4-II:C; amide I:5-II:N) | <1 |
| 0.25 (≈ 0.104 µM) | 0.0625 (≈ 0.026 µM) | 0.25 (≈ 0.104 µM) | 0.0625 (≈ 0.026 µM) | 0.0625 (≈ 0.026 µM) | 0.0625 (≈ 0.026 µM) | 0.125 (≈ 0.0521 µM) | 0.0625 (≈ 0.026 µM) | CC(C)C[C@@H]1NC(=O)[C@@H](CC(C)C)NC(=O)[C@H](CCN)NC(=O)[C@@H](NC(=O)[C@H](CCN)NC(=O)[C@@H](NC(=O)[C@H](CCN)NC(=O)CC[C@@H]2NC(=O)[C@H](CCN)NC(=O)[C@H](Cc3ccc(O)cc3)NC(=O)[C@@H](NC(=O)[C@@H](O)C(C)C)CSSC[C@@H](C(=O)N[C@H](CO)[C@@H](C)O)NC(=O)[C@H](C(C)(C)C)NC(=O)[C@H](CO)NC(=O)[C@H](Cc3c[nH]c4ccccc34)NC(=O)[C@H](CCO)NC(=O)[C@@H](CCN)NC2=O)[C@@H](C)O)CCNC(=O)[C@H]([C@@H](C)O)NC(=O)[C@H](CCN)NC(=O)[C@H](CCN)NC1=O [Ex. 74] (I: H-[Hiv]CY[Dab]E[dDab][hSer]WS[Tle]C[Thr(ol)] / II: [Dab]T[Dab][Dab][Dab][dL]L[Dab][Dab]T; disulfide I:2-I:11; amide I:5-II:N; lactam II:4-II:C) | <1 |

| Structure (SMILES) | MIC [2] [µg/mL] | MIC [3] [µg/mL] | MIC [4] [µg/mL] | MIC [5] [µg/mL] | MIC [6] [µg/mL] | MIC [7] [µg/mL] | MIC [8] [µg/mL] | MIC [9] [µg/mL] | Hemolysis at 200 μg/mL [1] [%] |
| --- | --- | --- | --- | --- | --- | --- | --- | --- | --- |
| CC(=O)N[C@H](C(=O)N[C@H]1CSSC[C@@H](C(=O)N[C@@H](CO)C(N)=O)NC(=O)[C@H](C(C)C)NC(=O)[C@@H]2CSSC[C@H](NC(=O)[C@H](Cc3ccc(O)cc3)NC1=O)C(=O)N[C@@H](CCC(=O)N[C@@H](CCN)C(=O)N[C@H](C(=O)N[C@@H](CCN)C(=O)N[C@H]1CCNC(=O)[C@H]([C@@H](C)O)NC(=O)[C@H](CCN)NC(=O)[C@H](CCN)NC(=O)[C@H](CC(C)C)NC(=O)[C@@H](CC(C)C)NC(=O)[C@H](CCN)NC1=O)[C@@H](C)O)C(=O)N[C@H](CCN)C(=O)N[C@@H](CCO)C(=O)N[C@@H](Cc1c[nH]c3ccccc13)C(=O)N2)C(C)C [Ex. 175] (I: Ac-VCYCE[dDab][hSer]WCVCS-NH2 / II: [Dab]T[Dab][Dab][Dab][dL]L[Dab][Dab]T; disulfide I:2-I:11, I:4-I:9; amide I:5-II:N; lactam II:4-II:C) | 0.125 (≈ 0.0511 µM) | 0.125 (≈ 0.0511 µM) | 0.25 (≈ 0.102 µM) | 0.0625 (≈ 0.0256 µM) | 0.0625 (≈ 0.0256 µM) | 0.125 (≈ 0.0511 µM) | 0.25 (≈ 0.102 µM) | 0.5 (≈ 0.205 µM) | 1 |
